Data as given in patent US10500166B2, “Methods for the treatment of erectile dysfunction using fispemifene” (QUATRX PHARMACEUTICALS, priority 2007, dated 2019).

Key:
serum testosterone = test: Phase I repeated dose study 101-50202: serum total testosterone; assay type: in vivo, human; settings: for increase of the mean serum total testosterone compared to baseline: 28 days, healthy men
Description: Fispemifene has been studied in two phase I studies in humans—in a single dose and a repeated dose study. Effect of fispemifene on hormone levels was one main focus of the repeated dose study. The phase I repeated dose study (number 101-50202) was a randomized, double-blind, placebo-controlled 28-day dose-escalation study performed in 31 healthy, elderly men, aged 50-68 years. The main objective of the study was to investigate the tolerability, safety and pharmacokinetics of fispemifene after repeated oral doses, but the study focused also on the effects of fispemifene on serum free and total testosterone, estradiol, and other relevant hormones. The fispemifene doses 10, 30, 100 and 300 mg per day and placebo were administered once every morning as capsules containing 10 mg or 100 mg of fispemifene, or placebo.
The variables for safety and tolerability were adverse events, vital signs, 12-lead ECG, clinical laboratory evaluations, physical examination, ultrasound examinations (mammary glands) and inhibin B. For pharmacokinetics, the concentrations of fispemifene and its metabolite(s) were to be evaluated. For pharmacodynamics, serum concentrations of FSH, LH, estradiol, testosterone, SHBG, prolactin, aldosterone, cortisol and TSH before and during treatment were measured and compared with the concentrations in the placebo-group.

[1] = system: calculated free testosterone; test: Example 3 study in hypogonadal men: calculated serum free testosterone (ITT); assay type: in vivo, human
Method: FIG. 7 depicts a graph of the data of the study from Example 3 showing the calculated serum free testosterone level (ng/dL) over time for each of the treatment groups. The bars from left to right for each of the BL (baseline), 2 week, 4 week, and 6 week timepoints (the 6 week timepoint occurred 2 weeks after the discontinuation of study drug at week 4) correspond to the placebo, 100 mg, 200 mg, and 300 mg/day doses, respectively;
A randomized, double-blind, placebo controlled, parallel-group study of once-daily doses of fispemifene (100, 200, and 300 mg/day) given for 4 weeks was conducted in a population of hypogonadal men. Subjects were required to meet all of the following inclusion criteria at screening and prior to randomization to be eligible for the study:
There were 77 subjects total. The number of subjects randomized to the 100 mg fispemifene, 200 mg fispemifene, 300 mg fispemifene, and placebo arms were 21, 21, 19, and 16, respectively.
Subjects were randomly assigned to one of four treatment groups in a 1:1:1:1 ratio: • Treatment A (100 mg): fispemifene 100 mg+placebo+placebo; • Treatment B (200 mg): fispemifene 100 mg+fispemifene 100 mg+placebo; • Treatment C (300 mg): fispemifene 100 mg+fispemifene 100 mg+fispemifene 100 mg; and • Treatment D (Placebo): placebo+placebo+placebo.
Subjects took one dose (three capsules) of study medication once a day at home for 4 weeks. Capsules were to be taken in the morning immediately after breakfast, with the exception of the morning of the Week 4 visit. Capsules were not to be taken on the morning of the Week 4 visit because trough plasma levels of fispemifene were determined by a blood sample taken at this visit. Each subject was randomly assigned to treatment with one of the 3 different dose regimens of fispemifene or placebo vehicle. Each subject received a 4 week supply of study drug.
Blood samples were taken from the subjects within 1 week prior to dosing with study drug to establish baseline values; after 2 and 4 weeks of randomization; and 2 weeks after the last dose of study drug. Serum was prepared from those samples and used to determine the mean % change from baseline in total testosterone, free testosterone, SHBG (sex hormone-binding globulin), DHT (dihydrotestosterone), E2 (estradiol), LH (luteinizing hormone), FSH (follicle stimulating hormone), and inhibin B.
1. Percent change from baseline in free testosterone and calculated free testosterone at Weeks 2, 4, and 6;

[2] = 100 mg/day, Week 6 (2 weeks after discontinuation)
[3] = 100 mg/day, to Week 6 (2 weeks after discontinuation)
[4] = 200 mg/day, Week 6 (2 weeks after discontinuation)
[5] = 200 mg/day, to Week 6 (2 weeks after discontinuation)
[6] = 300 mg/day, Week 6 (2 weeks after discontinuation)
[7] = 300 mg/day, to Week 6 (2 weeks after discontinuation)

OCCOCCOc1ccc(/C(=C(/CCCl)c2ccccc2)c2ccccc2)cc1 [Fispemifene, (Z)-2-{2-[4-(4-Chloro-1,2-diphenylbut-1-enyl)phenoxy]ethoxy}ethanol]
Serum total testosterone, Mean (serum testosterone; 10 mg/day, Baseline): 19.33 nmol/L | Serum total testosterone, Mean (serum testosterone; 10 mg/day, Day 8): 19.83 nmol/L | Serum total testosterone, Mean (serum testosterone; 10 mg/day, Day 15): 20.50 nmol/L | Serum total testosterone, Mean (serum testosterone; 10 mg/day, Day 22): 22.00 nmol/L | Serum total testosterone, Mean (serum testosterone; 10 mg/day, Day 28): 17.40 nmol/L | Serum total testosterone, Mean (serum testosterone; 30 mg/day, Baseline): 15.00 nmol/L | Serum total testosterone, Mean (serum testosterone; 30 mg/day, Day 15): 15.00 nmol/L | Serum total testosterone, Mean (serum testosterone; 30 mg/day, Day 22): 15.80 nmol/L | Serum total testosterone, Mean (serum testosterone; 30 mg/day, Day 28): 14.80 nmol/L | testosterone compared with placebo (serum testosterone; 100 mg and 300 mg): increased statistically significantly | subjects in whom increase in testosterone serum concentration was seen (serum testosterone; 100 mg or 300 mg, 28-day treatment period): all the subjects | increase of the mean serum total testosterone compared to baseline (serum testosterone; 100 mg/day): 32% | increase of the mean serum total testosterone compared to baseline (serum testosterone; 100 mg/day, listed as fispemifene): about 32% | Serum total testosterone, Mean (serum testosterone; 100 mg/day, Baseline): 14.27 nmol/L | Serum total testosterone, Mean (serum testosterone; 100 mg/day, Day 8): 18.67 nmol/L | Serum total testosterone, Mean (serum testosterone; 100 mg/day, Day 15): 19.00 nmol/L | Serum total testosterone, Mean (serum testosterone; 100 mg/day, Day 22): 17.83 nmol/L | Serum total testosterone, Mean (serum testosterone; 100 mg/day, Day 28): 18.83 nmol/L | men with serum testosterone level above the upper limit of normal range (33 nmol/L) during treatment (serum testosterone; 300 mg/day (highest dose)): Two out of six | increase of the mean serum total testosterone compared to baseline (serum testosterone; 300 mg/day): 75% | increase of the mean serum total testosterone compared to baseline (serum testosterone; 300 mg/day, listed as fispemifene): about 75% | Serum total testosterone, Mean (serum testosterone; 300 mg/day, Baseline): 15.67 nmol/L | Serum total testosterone, Mean (serum testosterone; 300 mg/day, Day 8): 23.17 nmol/L | Serum total testosterone, Mean (serum testosterone; 300 mg/day, Day 15): 27.00 nmol/L | Serum total testosterone, Mean (serum testosterone; 300 mg/day, Day 22): 27.83 nmol/L | Serum total testosterone, Mean (serum testosterone; 300 mg/day, Day 28): 27.50 nmol/L | effect on serum concentration of testosterone (serum testosterone; during the 28 days of treatment): increased | effect on serum testosterone concentration (serum testosterone; healthy older men, within 28 days from the start of treatment): clinically and statistically significant and dose dependent increase | Calculated Free Testosterone, Max ([1]; 100 mg/day, Baseline (Visit 2)): 7.54 ng/dL | Calculated Free Testosterone, Mean ± SD ([1]; 100 mg/day, Baseline (Visit 2)): 4.81 ± 1.368 ng/dL | Calculated Free Testosterone, Median ([1]; 100 mg/day, Baseline (Visit 2)): 4.95 ng/dL | Calculated Free Testosterone, Min ([1]; 100 mg/day, Baseline (Visit 2)): 2.19 ng/dL | Calculated Free Testosterone, Max ([1]; 100 mg/day, Week 2): 10.27 ng/dL | Calculated Free Testosterone, Mean ± SD ([1]; 100 mg/day, Week 2): 6.64 ± 1.732 ng/dL | Calculated Free Testosterone, Median ([1]; 100 mg/day, Week 2): 6.46 ng/dL | Calculated Free Testosterone, Min ([1]; 100 mg/day, Week 2): 4.32 ng/dL | Calculated Free Testosterone, Max ([1]; 100 mg/day, Week 4): 9.13 ng/dL | Calculated Free Testosterone, Mean ± SD ([1]; 100 mg/day, Week 4): 6.59 ± 1.396 ng/dL | Calculated Free Testosterone, Median ([1]; 100 mg/day, Week 4): 6.63 ng/dL | Calculated Free Testosterone, Min ([1]; 100 mg/day, Week 4): 4.15 ng/dL | Calculated Free Testosterone, Max [1, 2]: 7.05 ng/dL | Calculated Free Testosterone, Mean ± SD [1, 2]: 5.15 ± 1.057 ng/dL | Calculated Free Testosterone, Median [1, 2]: 5.10 ng/dL | Calculated Free Testosterone, Min [1, 2]: 2.57 ng/dL | Calculated Free Testosterone, % Change from Baseline, Max ([1]; 100 mg/day, to Week 2): 100% | Calculated Free Testosterone, % Change from Baseline, Median ([1]; 100 mg/day, to Week 2): 36% | Calculated Free Testosterone, % Change from Baseline, Min ([1]; 100 mg/day, to Week 2): 8% | Calculated Free Testosterone, % Change from Baseline, Max ([1]; 100 mg/day, to Week 4): 157% | Calculated Free Testosterone, % Change from Baseline, Median ([1]; 100 mg/day, to Week 4): 36% | Calculated Free Testosterone, % Change from Baseline, Max [1, 3]: 115% | Calculated Free Testosterone, % Change from Baseline, Median [1, 3]: 8% | Calculated Free Testosterone, Max ([1]; 200 mg/day, Baseline (Visit 2)): 7.29 ng/dL | Calculated Free Testosterone, Mean ± SD ([1]; 200 mg/day, Baseline (Visit 2)): 4.80 ± 1.143 ng/dL | Calculated Free Testosterone, Median ([1]; 200 mg/day, Baseline (Visit 2)): 4.70 ng/dL | Calculated Free Testosterone, Min ([1]; 200 mg/day, Baseline (Visit 2)): 2.66 ng/dL | Calculated Free Testosterone, Max ([1]; 200 mg/day, Week 2): 8.98 ng/dL | Calculated Free Testosterone, Mean ± SD ([1]; 200 mg/day, Week 2): 6.37 ± 1.386 ng/dL | Calculated Free Testosterone, Median ([1]; 200 mg/day, Week 2): 6.21 ng/dL | Calculated Free Testosterone, Min ([1]; 200 mg/day, Week 2): 4.11 ng/dL | Calculated Free Testosterone, Max ([1]; 200 mg/day, Week 4): 9.83 ng/dL | Calculated Free Testosterone, Mean ± SD ([1]; 200 mg/day, Week 4): 6.64 ± 1.658 ng/dL | Calculated Free Testosterone, Median ([1]; 200 mg/day, Week 4): 6.39 ng/dL | Calculated Free Testosterone, Min ([1]; 200 mg/day, Week 4): 4.05 ng/dL | Calculated Free Testosterone, Max [1, 4]: 7.81 ng/dL | Calculated Free Testosterone, Mean ± SD [1, 4]: 5.153 ± 1.328 ng/dL | Calculated Free Testosterone, Median [1, 4]: 4.88 ng/dL | Calculated Free Testosterone, Min [1, 4]: 3.60 ng/dL | Calculated Free Testosterone, % Change from Baseline, Max ([1]; 200 mg/day, to Week 2): 124% | Calculated Free Testosterone, % Change from Baseline, Median ([1]; 200 mg/day, to Week 2): 28% | Calculated Free Testosterone, % Change from Baseline, Min ([1]; 200 mg/day, to Week 2): 1% | Calculated Free Testosterone, % Change from Baseline, Max ([1]; 200 mg/day, to Week 4): 112% | Calculated Free Testosterone, % Change from Baseline, Median ([1]; 200 mg/day, to Week 4): 40% | Calculated Free Testosterone, % Change from Baseline, Max [1, 5]: 75% | Calculated Free Testosterone, % Change from Baseline, Median [1, 5]: 6% | Calculated Free Testosterone, Max ([1]; 300 mg/day, Baseline (Visit 2)): 7.02 ng/dL | Calculated Free Testosterone, Mean ± SD ([1]; 300 mg/day, Baseline (Visit 2)): 4.66 ± 1.509 ng/dL | Calculated Free Testosterone, Median ([1]; 300 mg/day, Baseline (Visit 2)): 4.94 ng/dL | Calculated Free Testosterone, Min ([1]; 300 mg/day, Baseline (Visit 2)): 0.23 ng/dL | Calculated Free Testosterone, Max ([1]; 300 mg/day, Week 2): 9.79 ng/dL | Calculated Free Testosterone, Mean ± SD ([1]; 300 mg/day, Week 2): 6.43 ± 2.152 ng/dL | Calculated Free Testosterone, Median ([1]; 300 mg/day, Week 2): 7.25 ng/dL | Calculated Free Testosterone, Min ([1]; 300 mg/day, Week 2): 0.14 ng/dL | Calculated Free Testosterone, Max ([1]; 300 mg/day, Week 4): 10.31 ng/dL | Calculated Free Testosterone, Mean ± SD ([1]; 300 mg/day, Week 4): 7.33 ± 2.589 ng/dL | Calculated Free Testosterone, Median ([1]; 300 mg/day, Week 4): 8.40 ng/dL | Calculated Free Testosterone, Min ([1]; 300 mg/day, Week 4): 0.10 ng/dL | Calculated Free Testosterone, Max [1, 6]: 8.02 ng/dL | Calculated Free Testosterone, Mean ± SD [1, 6]: 5.29 ± 1.791 ng/dL | Calculated Free Testosterone, Median [1, 6]: 5.44 ng/dL | Calculated Free Testosterone, Min [1, 6]: 0.22 ng/dL | Calculated Free Testosterone, % Change from Baseline, Max ([1]; 300 mg/day, to Week 2): 83% | Calculated Free Testosterone, % Change from Baseline, Median ([1]; 300 mg/day, to Week 2): 40% | Calculated Free Testosterone, % Change from Baseline, Max ([1]; 300 mg/day, to Week 4): 133% | Calculated Free Testosterone, % Change from Baseline, Median ([1]; 300 mg/day, to Week 4): 59% | Calculated Free Testosterone, % Change from Baseline, Max [1, 7]: 65% | Calculated Free Testosterone, % Change from Baseline, Median [1, 7]: 10%
